Reference: PubChem BioAssay (NCI)
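Where inhibition never reached the appropriate level, the endpoint shown equals the highest concentration tested. Otherwise, values were interpolated linearly from a five-concentration, 48-hour dose response in 96-well plates. Here, GI50 denotes the concentration required for 50% inhibition of growth. TGI: concentration producing complete growth inhibition.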

What was measured:
Assay in all cases: NCI-60 cell line screen, 48 h
786-0 renal = test system: 786-0 renal
A498 renal = test system: A498 renal
A549 NSCLC = test system: A549 NSCLC
ACHN renal = test system: ACHN renal
BT-549 breast = test system: BT-549 breast
CAKI-1 renal = test system: CAKI-1 renal
CCRF-CEM leukemia = test system: CCRF-CEM leukemia
COLO 205 colon = test system: COLO 205 colon
DU-145 prostate = test system: DU-145 prostate
EKVX NSCLC = test system: EKVX NSCLC
HCC-2998 colon = test system: HCC-2998 colon
HCT-116 colon = test system: HCT-116 colon
HCT-15 colon = test system: HCT-15 colon
HOP-62 NSCLC = test system: HOP-62 NSCLC
HOP-92 NSCLC = test system: HOP-92 NSCLC
HS 578T breast = test system: HS 578T breast
HT29 colon = test system: HT29 colon
IGROV1 ovarian = test system: IGROV1 ovarian
K-562 leukemia = test system: K-562 leukemia
KM12 colon = test system: KM12 colon
LOX IMVI melanoma = test system: LOX IMVI melanoma
M14 melanoma = test system: M14 melanoma
MALME-3M melanoma = test system: MALME-3M melanoma
MCF7 breast = test system: MCF7 breast
MDA-MB-231 breast = test system: MDA-MB-231 breast
MDA-MB-435 = test system: MDA-MB-435
MOLT-4 leukemia = test system: MOLT-4 leukemia
NCI-H226 lung = test system: NCI-H226 lung
NCI-H460 lung = test system: NCI-H460 lung
NCI-H522 lung = test system: NCI-H522 lung
NCI/ADR-RES ovarian = test system: NCI/ADR-RES ovarian
OVCAR-3 ovarian = test system: OVCAR-3 ovarian
OVCAR-4 ovarian = test system: OVCAR-4 ovarian
OVCAR-5 ovarian = test system: OVCAR-5 ovarian
OVCAR-8 ovarian = test system: OVCAR-8 ovarian
PC-3 prostate = test system: PC-3 prostate
RPMI-8226 leukemia = test system: RPMI-8226 leukemia
RXF 393 renal = test system: RXF 393 renal
SF-268 CNS = test system: SF-268 CNS
SF-295 CNS = test system: SF-295 CNS
SF-539 CNS = test system: SF-539 CNS
SK-MEL-28 melanoma = test system: SK-MEL-28 melanoma
SK-MEL-5 melanoma = test system: SK-MEL-5 melanoma
SK-OV-3 ovarian = test system: SK-OV-3 ovarian
SN12C renal = test system: SN12C renal
SNB-19 CNS = test system: SNB-19 CNS
SNB-75 CNS = test system: SNB-75 CNS
SW-620 colon = test system: SW-620 colon
T-47D breast = test system: T-47D breast
TK-10 renal = test system: TK-10 renal
U251 CNS = test system: U251 CNS
UACC-257 melanoma = test system: UACC-257 melanoma
UACC-62 melanoma = test system: UACC-62 melanoma
UO-31 renal = test system: UO-31 renal

O=S(=O)(NCCCNc1nccc(-c2[nH]c(-c3ccccc3)nc2-c2ccc(F)c(O)c2)n1)c1ccc(C(F)(F)F)cc1
GI50 (786-0 renal): 3.52 µM
TGI (786-0 renal): 11.7 µM
GI50 (A498 renal): 2.68 µM
TGI (A498 renal): 7.38 µM
GI50 (A549 NSCLC): 3.04 µM
TGI (A549 NSCLC): 12.4 µM
GI50 (ACHN renal): 2.85 µM
TGI (ACHN renal): 8.78 µM
GI50 (BT-549 breast): 2.53 µM
TGI (BT-549 breast): 7.12 µM
GI50 (CAKI-1 renal): 2.57 µM
TGI (CAKI-1 renal): 13.8 µM
GI50 (CCRF-CEM leukemia): 3.46 µM
TGI (CCRF-CEM leukemia): > 100 µM
GI50 (COLO 205 colon): 3.06 µM
TGI (COLO 205 colon): 9.77 µM
GI50 (DU-145 prostate): 3.06 µM
TGI (DU-145 prostate): 11.5 µM
GI50 (EKVX NSCLC): 3.61 µM
TGI (EKVX NSCLC): 16 µM
GI50 (HCC-2998 colon): 2.8 µM
TGI (HCC-2998 colon): 6.53 µM
GI50 (HCT-116 colon): 2.18 µM
TGI (HCT-116 colon): 5.11 µM
GI50 (HCT-15 colon): 3.04 µM
TGI (HCT-15 colon): 9.62 µM
GI50 (HOP-62 NSCLC): 2.89 µM
TGI (HOP-62 NSCLC): 10.9 µM
GI50 (HOP-92 NSCLC): 2.15 µM
TGI (HOP-92 NSCLC): 9.16 µM
GI50 (HS 578T breast): 2.71 µM
TGI (HS 578T breast): 7.12 µM
GI50 (HT29 colon): 2.96 µM
GI50 (IGROV1 ovarian): 2.41 µM
TGI (IGROV1 ovarian): 6.72 µM
GI50 (K-562 leukemia): 2.87 µM
TGI (K-562 leukemia): > 100 µM
GI50 (KM12 colon): 3.05 µM
TGI (KM12 colon): 9.09 µM
GI50 (LOX IMVI melanoma): 2.01 µM
TGI (LOX IMVI melanoma): 4.78 µM
GI50 (M14 melanoma): 1.46 µM
TGI (M14 melanoma): 4.09 µM
GI50 (MALME-3M melanoma): 1.21 µM
TGI (MALME-3M melanoma): 3.47 µM
GI50 (MCF7 breast): 2.82 µM
TGI (MCF7 breast): 10.4 µM
GI50 (MDA-MB-231 breast): 2.75 µM
TGI (MDA-MB-231 breast): 8.44 µM
GI50 (MDA-MB-435): 1.59 µM
TGI (MDA-MB-435): 3.7 µM
GI50 (MOLT-4 leukemia): 3.02 µM
TGI (MOLT-4 leukemia): > 100 µM
GI50 (NCI-H226 lung): 3.85 µM
TGI (NCI-H226 lung): 16.7 µM
GI50 (NCI-H460 lung): 2.26 µM
TGI (NCI-H460 lung): 5.07 µM
GI50 (NCI-H522 lung): 2.42 µM
TGI (NCI-H522 lung): 7.12 µM
GI50 (NCI/ADR-RES ovarian): 3.88 µM
TGI (NCI/ADR-RES ovarian): 18.9 µM
GI50 (OVCAR-3 ovarian): 2.62 µM
TGI (OVCAR-3 ovarian): 5.49 µM
GI50 (OVCAR-4 ovarian): 3.62 µM
TGI (OVCAR-4 ovarian): 24.1 µM
GI50 (OVCAR-5 ovarian): 3.12 µM
TGI (OVCAR-5 ovarian): 9.26 µM
GI50 (OVCAR-8 ovarian): 3.37 µM
TGI (OVCAR-8 ovarian): > 100 µM
GI50 (PC-3 prostate): 3.08 µM
TGI (PC-3 prostate): > 100 µM
GI50 (RPMI-8226 leukemia): 2.49 µM
TGI (RPMI-8226 leukemia): 7.05 µM
GI50 (RXF 393 renal): 2.3 µM
TGI (RXF 393 renal): 5 µM
GI50 (SF-268 CNS): 2.55 µM
TGI (SF-268 CNS): 7.25 µM
GI50 (SF-295 CNS): 1.88 µM
TGI (SF-295 CNS): 3.58 µM
GI50 (SF-539 CNS): 2 µM
TGI (SF-539 CNS): 3.85 µM
GI50 (SK-MEL-28 melanoma): 1.61 µM
TGI (SK-MEL-28 melanoma): 4.46 µM
GI50 (SK-MEL-5 melanoma): 1.69 µM
TGI (SK-MEL-5 melanoma): 3.23 µM
GI50 (SK-OV-3 ovarian): 3.46 µM
TGI (SK-OV-3 ovarian): 18.8 µM
GI50 (SN12C renal): 2.59 µM
TGI (SN12C renal): 7.62 µM
GI50 (SNB-19 CNS): 3.51 µM
TGI (SNB-19 CNS): 11.1 µM
GI50 (SNB-75 CNS): 2.22 µM
TGI (SNB-75 CNS): 7.79 µM
GI50 (SW-620 colon): 4.09 µM
TGI (SW-620 colon): 15 µM
GI50 (T-47D breast): 2.56 µM
TGI (T-47D breast): 22 µM
GI50 (TK-10 renal): 3.79 µM
TGI (TK-10 renal): 28.1 µM
GI50 (U251 CNS): 3.15 µM
TGI (U251 CNS): 9.85 µM
GI50 (UACC-257 melanoma): 2.48 µM
TGI (UACC-257 melanoma): 7.33 µM
GI50 (UACC-62 melanoma): 1.29 µM
TGI (UACC-62 melanoma): 2.82 µM
GI50 (UO-31 renal): 2.69 µM
TGI (UO-31 renal): 7.17 µM
